# Target: T1, ALK C1156Y (Homo sapiens, UniProt Q9UM73, C1156Y)
# T1 construct: purchased Thermo Fisher Scientific (Life Technologies) SelectScreen
# Assay: SelectScreen LanthaScreen
# Assay type: binding
# Settings: read-out: % displacement
# How it was run: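 Percent values come from Thermo SelectScreen profiling of NU5455, combining activity and binding assays. CSF1R was run in Z'LYTE format at Km app ATP, and CAMK1 in Adapta format with ATP listed at 10.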
# T1 sequence (Q9UM73 19-1620 C1156Y): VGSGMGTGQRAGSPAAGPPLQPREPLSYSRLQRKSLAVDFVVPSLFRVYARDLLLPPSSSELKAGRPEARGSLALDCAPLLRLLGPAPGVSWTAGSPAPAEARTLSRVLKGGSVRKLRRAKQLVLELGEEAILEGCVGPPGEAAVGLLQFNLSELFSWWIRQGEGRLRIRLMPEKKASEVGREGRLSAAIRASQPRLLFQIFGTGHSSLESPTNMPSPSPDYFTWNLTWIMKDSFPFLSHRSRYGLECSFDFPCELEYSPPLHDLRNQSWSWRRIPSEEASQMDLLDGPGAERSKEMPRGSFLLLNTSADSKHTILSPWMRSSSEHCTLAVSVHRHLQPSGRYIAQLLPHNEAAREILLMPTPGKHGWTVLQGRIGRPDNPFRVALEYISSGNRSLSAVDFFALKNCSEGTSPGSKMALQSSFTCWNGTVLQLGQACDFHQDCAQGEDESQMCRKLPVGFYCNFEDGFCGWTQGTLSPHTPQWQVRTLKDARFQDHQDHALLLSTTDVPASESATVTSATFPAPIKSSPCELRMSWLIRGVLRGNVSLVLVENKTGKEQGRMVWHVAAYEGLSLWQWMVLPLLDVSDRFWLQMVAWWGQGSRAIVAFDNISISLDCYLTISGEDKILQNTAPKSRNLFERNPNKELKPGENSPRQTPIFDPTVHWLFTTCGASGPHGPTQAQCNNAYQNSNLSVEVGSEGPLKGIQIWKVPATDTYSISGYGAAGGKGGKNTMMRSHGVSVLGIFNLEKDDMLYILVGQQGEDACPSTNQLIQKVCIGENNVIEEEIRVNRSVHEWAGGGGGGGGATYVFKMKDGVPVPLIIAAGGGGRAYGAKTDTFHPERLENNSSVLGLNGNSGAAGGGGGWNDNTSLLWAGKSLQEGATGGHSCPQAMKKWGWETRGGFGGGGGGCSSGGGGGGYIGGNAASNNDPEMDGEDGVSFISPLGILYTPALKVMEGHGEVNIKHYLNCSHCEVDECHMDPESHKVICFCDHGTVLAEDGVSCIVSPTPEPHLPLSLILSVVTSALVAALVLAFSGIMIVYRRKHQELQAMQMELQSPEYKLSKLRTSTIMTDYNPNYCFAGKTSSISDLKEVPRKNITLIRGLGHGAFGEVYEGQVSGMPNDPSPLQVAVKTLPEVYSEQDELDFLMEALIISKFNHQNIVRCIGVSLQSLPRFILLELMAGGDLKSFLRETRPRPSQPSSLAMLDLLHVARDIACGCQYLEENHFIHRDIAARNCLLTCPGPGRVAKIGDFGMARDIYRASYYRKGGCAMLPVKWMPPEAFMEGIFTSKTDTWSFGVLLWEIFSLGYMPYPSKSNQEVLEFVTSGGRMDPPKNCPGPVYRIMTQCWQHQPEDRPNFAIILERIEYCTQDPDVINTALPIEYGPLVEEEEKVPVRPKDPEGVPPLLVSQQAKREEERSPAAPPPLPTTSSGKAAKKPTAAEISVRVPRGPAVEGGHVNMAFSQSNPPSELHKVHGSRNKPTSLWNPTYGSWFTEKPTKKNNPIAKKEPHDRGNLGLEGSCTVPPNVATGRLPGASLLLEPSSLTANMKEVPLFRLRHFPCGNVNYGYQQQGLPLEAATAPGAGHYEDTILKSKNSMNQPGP
compound,measurement,value
CN(C(=O)CN1CCOCC1)c1ccc2sc3c(-c4cccc5c(=O)cc(N6CC7CCC(C6)O7)oc45)cccc3c2c1 [NU5455],inhibition at 1 µM,0.6%

# Source: publication PMC6934184, “Selective DNA-PKcs inhibition extends the therapeutic index of localized radiotherapy and chemotherapy” (The Journal of Clinical Investigation, 2019)
